Patent publication US6514942B1, “Methods and compositions for stimulating T-lymphocytes” (The Board of Regents, The University of Texas System, priority 1995, dated 2003)
“Also recorded” adds a separate entry of the source.

What was measured:
Assay type in all cases: cell-based, human
[1] = system: HLA-A2- CTL from donors 14 and 15; assay: Presentation of peptides by HLA-A2+ transfectants to HLA-A2- CTL; conditions: CTL induced with the same peptides
[2] = system: OVA-16 (HLA-A2+, HER-2high) ovarian tumor; assay: Cold target inhibition of OVA-16 lysis by 41.CD8+ CTL with peptide-pulsed C1R:A2 cells; conditions: cold:hot 2:1, E:T 10:1, 4- and 20-h assays
Description: (§1) FIG. 4A. Target specificity of the 41.CD8^+ CTL were tested for the ability to lyse 5^1Cr-labeled OVA-16 at an E:T ratio of 10:1. C1R:A2 cells (A2.1) were incubated with synthetic peptides (D125, C43, C85), washed, and used in cold target inhibition studies at a cold:hot ratio of 2:1. Cytotoxicity studies were performed for 5 hr. Results represent the mean of three determinations. The variability between samples was less than 10%. The differences between determination are statistically significant (P<0.03) as determined by Student's t test. Percentage inhibition is indicated in parentheses.
as §1, with “FIG. 4B.” for “FIG. 4A.”, “lyse ^51Cr-labeled” for “lyse 5^1Cr-labeled”, “for 20” for “for 5”
(§2) Tumor cells and fibroblasts were labeled with 200 μCi of ^51Cr (Na^51CrO4; Amersham, Arlington Heights, Ill.) for 90 min at 37° C. (Ioannides et al., 1991). Lymphoblastoid cells and HLA-A2 transfectants were labeled overnight in RPMI-FCS, then washed three times and incubated with effector cells in RPMI-FCS in an incubator with 5%. CO2 (Bednarek et al., 1991; Gammon et al., 1992). When peptide recognition was determined, targets were incubated with 25 μM of peptides overnight during ^51Cr labeling or with 10 μM peptide for 2 h at 37° C. in RPMI-FCS then washed three times before being incubated with effector cells. Separate controls for spontaneous and total lysis were made for each peptide-pulsed target (Ioannides et al., 1991; Bednarek et al., 1991; Gammon et al., 1992). After 4-5 h, 100 μl of supernatant was collected and counted. To determine maximum lysis in 20-h assays, plates were left undisturbed in the incubator and the supernatant was collected after overnight incubation. For cold target inhibition studies, C1R:A2 cells were preincubated with HER-2 or control peptides overnight, then washed and admixed with ^51Cr-labeled targets at 2:1 and 6:1 (cold:hot targets) ratios. Percentage lysis was calculated from the formula: 100×[(E−S)/(T−S)], where E is experimental release, S is release in the absence of CTL, and T is release in 2 M HCl.
To confirm that the 41.CD8^+ CTL line recognizes epitopes on HER-2^high tumors contained on peptides used for stimulation, cold target inhibition studies were performed. […]

C1R:A2 cells [3] = assay: Lysis of peptide-sensitized C1R:A2 cells by CTL cultures induced in vitro with C43 and C84; conditions: E:T 10:1, donor 51
[4] = system: C1R:A1 cells (HLA-A1 transfectants); assay: Ag specificity of the 41.CD8+ CTL line on peptide-pulsed targets
Description: (§3) FIG. 2A. Ag specificity of the 41.CD8^+ CTL line. C1R:A2 cells were pre-pulsed with either HER-2 peptides or control MUC-1 peptides before being incubated with effectors. The effector to target ratio was 10:1. C1R:A1 and C1R:A3 targets were pre-pulsed with the same peptides in the same conditions as C1R:A2 cells. Results for C1R:A1 and C1R:A3 show the difference between specific lysis of targets preincubated with peptides and control C1R:A1 and C1R:A3 targets. Specific lysis of control C1R:A1 and C1R:A3 cells was less than 10% at the same E:T ratio. Shown in FIG. 2A are results after 4 hrs' incubation.
Tumor cells and fibroblasts were labeled with 200 μCi of ^51Cr (Na^51CrO4; Amersham, Arlington Heights, Ill.) for 90 min at 37° C. (Ioannides et al., 1991). Lymphoblastoid cells and HLA-A2 transfectants were labeled overnight in RPMI-FCS, then washed three times and incubated with effector cells in RPMI-FCS in an incubator with 5%. […] When peptide recognition was determined, targets were incubated with 25 μM of peptides overnight during ^51Cr labeling or with 10 μM peptide for 2 h at 37° C. in RPMI-FCS then washed three times before being incubated with effector cells. […] After 4-5 h, 100 μl of supernatant was collected and counted. […] Percentage lysis was calculated from the formula: 100×[(E−S)/(T−S)], where E is experimental release, S is release in the absence of CTL, and T is release in 2 M HCl. […]

C1R:A2 cells [5] = assay: as above; conditions: peptide-pulsed C1R:A2, E:T 10:1
Description: as §3, §2
These cultures were propagated and expanded by periodic cycles of restimulation with peptide-pulsed fresh autologous PBMC as antigen-presenting cells. After the fourth stimulation cells were gradually adapted to growth in RPMI-FCS by replacing 25% of the culture medium every 3 days with RPMI-FCS over a period of 2 weeks. CD3^+CD8^+CD4^− cells were isolated from bulk CTL cultures by positive selection on anti-CD8 mAb-coated culture flasks (AIS Micro CELLector, Applied Immune Sciences, Menlo Park, Calif.) as described (Letessier et al., 1991). Isolated CD8^+ cells were restimulated with HER-2 peptide-pulsed PBMC, either autologous or in some instances allogeneic that matched only HLA-A2 with the responding cells. […]

C1R:A2 and T2 cells = assay: Lysis by LAK cells in presence of peptides
Description: It is unlikely that tumor killing by 41.CD8^+ CTL reflects LAK type activity. LAK cells lyse K562 with higher efficiency than they lyse human tumors (Grimm et al., 1982). Also, both C1R:A2 and SkOV3.A2 were transfected with the same HLA-A2 plasmid expression vector. […] In separate studies, LAK cells lysed effectively both C1R:A2 and T2 cells. This lysis was not affected by C43/C84 or mutated peptides based on this sequence.

Row | Sequence | cross-presentation to HLA-A2- CTL [1] | inhibition of tumor lysis by peptide-pulsed cold targets [2] | difference between HER-2 peptide and control targets recognition (C1R:A2 cells [3]; 4-hr assay) | difference between HER-2 peptide and control targets recognition (C1R:A2 cells [3]; 20-hr assay) | lysis of peptide pulsed versus control targets by 41.CD8+ CTL [4] | recognition by 41.CD8+ CTL line (C1R:A2 cells [5]) | effect on lysis by LAK cells (C1R:A2 and T2 cells)
1 | ELVSEFSRV [Peptide C84, HER-2:971-979 analog, Met(P9) substituted by Val] | did not cross-present | inhibit HER-2^high tumor lysis; also recorded: specifically inhibit tumor lysis | not significant | significant | failed to elicit a higher lysis of peptide pulsed than of control targets | recognized | not affected
2 | RFRELVSEFSRMAR [Peptide C43, HER-2:968-981 14mer peptide] | did not cross-present | inhibited the lysis of the OVA-16 tumor; also recorded: inhibit HER-2^high tumor lysis | not significant | significant | failed to elicit a higher lysis of peptide pulsed than of control targets | recognized | not affected
